# Assay results: patent publication US7060872B1, “Method for producing plants having modified canopy size or seedless fruit” (The State of Israel-Ministry of Agriculture & Rural …, priority 1998, dated 2006)
# Entries after “also recorded” stand apart in the source; their conditions may differ.
# Test system: transgenic tomato plants expressing the sps streptavidin construct
# Assay: External biotin application to sps transgenic tomato plants (reversal of degeneration)
# Format: in vivo
# From the text: The morphology and development of leaves of 6 weeks old plants obtained from non transgenic plant and transgenic tomato plants expressing the sps streptavidin construct and treated daily with biotin were also examined. FIG. 7 depicts the results of this study. […] This degeneration was to a lesser degree in the treated plants. Non transgenic plants both biotin treated and untreated appeared normal.
# All of the plants treated with biotin remained green and vital throughout their development.
structure (smiles),measurement,setting,value
O=C(O)CCCC[C@@H]1SC[C@@H]2NC(=O)N[C@@H]21 [biotin],"effect of daily biotin spraying after the initial chlorotic symptoms, on leaves","2 μM biotin, daily spray",development of normal leaves
same,effect of daily biotin spraying after the initial necrotic lesion,"2 μM biotin, daily spray",stopped or prevented further development of degenerative symptoms
same,"effect of daily biotin spraying after the initial flower buds, on fruit and seed","2 μM biotin, daily spray, plants with seedless fruit",development of normal fruit and the restoration of normal seed development
same,effect of spraying biotin on the affected area,6 mg/liter biotin,stopped the degeneration process and plants' growth was restored
same,effect of biotin application to T0 plants on germination of their seeds,seeds otherwise non-germinating (FIG. 6),restored the germination; also recorded: normal germination
same,effect of biotin solution on leaf development of a degenerated T0 plant,seen 10 or 20 days after application (FIG. 5),restored normal leaf development
same,tissue degeneration after a single biotin treatment,"treated once after 3 weeks, 6 weeks old plants, versus untreated transgenic plants (FIG. 7)",lesser degree
